Experimental data published in article PMC12281475, “Mediator Kinase Inhibitor Selectivity and Activity in Colorectal Cancer” (ACS Chemical Biology, 2025).

Experiments:
CDK8_CycC = target: T1, CDK8_CycC (Homo sapiens, UniProt P49336); assay: Radiometric protein kinase assay (33PanQinase), CDK8_CycC; format: biochemical
T1 construct: purchased Reaction Biology

CDK7_CycH_MAT1 = target: T2, CDK7_CycH_MAT1 (Homo sapiens, UniProt P50613); assay: Radiometric protein kinase assay (33PanQinase), CDK7_CycH_MAT1; format: biochemical
T2 construct: purchased Reaction Biology

CDK13_CycK = target: T3, CDK13_CycK (Homo sapiens, UniProt Q14004); assay: Radiometric protein kinase assay (33PanQinase), CDK13_CycK; format: biochemical; conditions: slope of the IC50 fit
T3 construct: purchased Reaction Biology

CDK9_CycK = target: T4, CDK9_CycK (Homo sapiens, UniProt P50750); assay: Radiometric protein kinase assay (33PanQinase), CDK9_CycK; format: biochemical
T4 construct: purchased Reaction Biology

CDK8 = tested on: CDK8; design: method as in numbers not given; conditions: reporter displacement assay; previously characterized compounds, no method in this paper; ref numbers not given; read-out: IC50 for in vitro CDK8 binding; cited from earlier work
CDK1_CycA2 = target: T5, CDK1_CycA2 (Homo sapiens, UniProt P06493); assay: Radiometric protein kinase assay (33PanQinase), CDK1_CycA2; format: biochemical
T5 construct: purchased Reaction Biology

CDK1_CycE1 = target: T6, CDK1_CycE1 (Homo sapiens, UniProt P06493); assay: Radiometric protein kinase assay (33PanQinase), CDK1_CycE1; format: biochemical
T6 construct: purchased Reaction Biology

CDK3_CycC = target: T7, CDK3_CycC (Homo sapiens, UniProt Q00526); assay: Radiometric protein kinase assay (33PanQinase), CDK3_CycC; format: biochemical
T7 construct: purchased Reaction Biology

CDK1_CycB1 = target: T8, CDK1_CycB1 (Homo sapiens, UniProt P06493); assay: Radiometric protein kinase assay (33PanQinase), CDK1_CycB1; format: biochemical
T8 construct: purchased Reaction Biology

CDK11B 357-795_CycK = CDK11B 357-795_CycK (Homo sapiens, UniProt P21127); assay: Radiometric protein kinase assay (33PanQinase), CDK11B 357-795_CycK; format: biochemical
CDK16_CycY = target: T9, CDK16_CycY (Homo sapiens, UniProt Q00536); assay: Radiometric protein kinase assay (33PanQinase), CDK16_CycY; format: biochemical
T9 construct: purchased Reaction Biology

CDK2_CycA2 = target: T10, CDK2_CycA2 (Homo sapiens, UniProt P24941); assay: Radiometric protein kinase assay (33PanQinase), CDK2_CycA2; format: biochemical
T10 construct: purchased Reaction Biology

CDK4_CycD2 = target: T11, CDK4_CycD2 (Homo sapiens, UniProt P11802); assay: Radiometric protein kinase assay (33PanQinase), CDK4_CycD2; format: biochemical
T11 construct: purchased Reaction Biology

CDK2_CycE1 = target: T12, CDK2_CycE1 (Homo sapiens, UniProt P24941); assay: Radiometric protein kinase assay (33PanQinase), CDK2_CycE1; format: biochemical
T12 construct: purchased Reaction Biology

CDK15_CycA2 = target: T13, CDK15_CycA2 (Homo sapiens, UniProt Q96Q40); assay: Radiometric protein kinase assay (33PanQinase), CDK15_CycA2; format: biochemical
T13 construct: purchased Reaction Biology

CDK4_CycD1 = target: T14, CDK4_CycD1 (Homo sapiens, UniProt P11802); assay: Radiometric protein kinase assay (33PanQinase), CDK4_CycD1; format: biochemical
T14 construct: purchased Reaction Biology

CDK20_CycT1 = CDK20_CycT1 (Homo sapiens, UniProt Q8IZL9); assay: Radiometric protein kinase assay (33PanQinase), CDK20_CycT1; format: biochemical
CDK14_CycY = CDK14_CycY (Homo sapiens, UniProt O94921); assay: Radiometric protein kinase assay (33PanQinase), CDK14_CycY; format: biochemical
CDK9_CycT1 = target: T15, CDK9_CycT1 (Homo sapiens, UniProt P50750); assay: Radiometric protein kinase assay (33PanQinase), CDK9_CycT1; format: biochemical
T15 construct: purchased Reaction Biology

CDK10_CycQ = CDK10_CycQ (Homo sapiens, UniProt Q15131); assay: Radiometric protein kinase assay (33PanQinase), CDK10_CycQ; format: biochemical
CDK6_CycD3 = target: T16, CDK6_CycD3 (Homo sapiens, UniProt Q00534); assay: Radiometric protein kinase assay (33PanQinase), CDK6_CycD3; format: biochemical; conditions: slope of the IC50 fit
T16 construct: purchased Reaction Biology

CDK6_CycD2 = target: T17, CDK6_CycD2 (Homo sapiens, UniProt Q00534); assay: Radiometric protein kinase assay (33PanQinase), CDK6_CycD2; format: biochemical
T17 construct: purchased Reaction Biology

CDK19_CycC = target: T18, CDK19_CycC (Homo sapiens, UniProt Q9BWU1); assay: Radiometric protein kinase assay (33PanQinase), CDK19_CycC; format: biochemical
T18 construct: purchased Reaction Biology

CDK18_CycY = CDK18_CycY (Homo sapiens, UniProt Q07002); assay: Radiometric protein kinase assay (33PanQinase), CDK18_CycY; format: biochemical
CDK6_CycD1 = target: T19, CDK6_CycD1 (Homo sapiens, UniProt Q00534); assay: Radiometric protein kinase assay (33PanQinase), CDK6_CycD1; format: biochemical
T19 construct: purchased Reaction Biology

CDK20_CycH = CDK20_CycH (Homo sapiens, UniProt Q8IZL9); assay: Radiometric protein kinase assay (33PanQinase), CDK20_CycH; format: biochemical
CDK3_CycE1 = target: T20, CDK3_CycE1 (Homo sapiens, UniProt Q00526); assay: Radiometric protein kinase assay (33PanQinase), CDK3_CycE1; format: biochemical; conditions: slope of the IC50 fit
T20 construct: purchased Reaction Biology

CDK5_p25NCK = target: T21, CDK5_p25NCK (Homo sapiens, UniProt Q00535); assay: Radiometric protein kinase assay (33PanQinase), CDK5_p25NCK; format: biochemical
T21 construct: purchased Reaction Biology

CDK5_p35NCK = target: T22, CDK5_p35NCK (Homo sapiens, UniProt Q00535); assay: Radiometric protein kinase assay (33PanQinase), CDK5_p35NCK; format: biochemical
T22 construct: purchased Reaction Biology

CDK4_CycD3 = target: T23, CDK4_CycD3 (Homo sapiens, UniProt P11802); assay: Radiometric protein kinase assay (33PanQinase), CDK4_CycD3; format: biochemical
T23 construct: purchased Reaction Biology

CDK2_CycD1 = target: T24, CDK2_CycD1 (Homo sapiens, UniProt P24941); assay: Radiometric protein kinase assay (33PanQinase), CDK2_CycD1; format: biochemical
T24 construct: purchased Reaction Biology

CDK12_CycK = target: T25, CDK12_CycK (Homo sapiens, UniProt Q9NYV4); assay: Radiometric protein kinase assay (33PanQinase), CDK12_CycK; format: biochemical; conditions: slope of the IC50 fit
T25 construct: purchased Reaction Biology

CDK17_p35NCK = CDK17_p35NCK (Homo sapiens, UniProt Q00537); assay: Radiometric protein kinase assay (33PanQinase), CDK17_p35NCK; format: biochemical
[1] = highest assay concentration 1.00E-05 M
[2] = highest assay concentration 1.00E-05 M, read-out: IC50

T9 sequence (Q00536 whole entry): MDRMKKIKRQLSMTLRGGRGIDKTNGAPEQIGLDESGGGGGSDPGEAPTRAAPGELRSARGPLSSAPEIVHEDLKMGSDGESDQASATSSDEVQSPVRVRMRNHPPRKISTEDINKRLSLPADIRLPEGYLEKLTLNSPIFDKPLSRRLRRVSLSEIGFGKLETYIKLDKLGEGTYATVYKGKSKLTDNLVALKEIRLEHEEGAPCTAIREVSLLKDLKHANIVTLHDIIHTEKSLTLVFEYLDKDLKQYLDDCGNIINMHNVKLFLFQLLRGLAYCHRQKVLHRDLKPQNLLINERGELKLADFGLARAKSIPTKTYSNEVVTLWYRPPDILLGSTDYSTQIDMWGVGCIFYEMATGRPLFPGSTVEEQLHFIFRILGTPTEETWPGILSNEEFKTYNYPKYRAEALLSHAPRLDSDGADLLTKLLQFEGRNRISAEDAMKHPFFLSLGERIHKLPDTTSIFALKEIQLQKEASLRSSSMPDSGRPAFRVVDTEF
T9 sequence (Q8ND76 whole entry partner): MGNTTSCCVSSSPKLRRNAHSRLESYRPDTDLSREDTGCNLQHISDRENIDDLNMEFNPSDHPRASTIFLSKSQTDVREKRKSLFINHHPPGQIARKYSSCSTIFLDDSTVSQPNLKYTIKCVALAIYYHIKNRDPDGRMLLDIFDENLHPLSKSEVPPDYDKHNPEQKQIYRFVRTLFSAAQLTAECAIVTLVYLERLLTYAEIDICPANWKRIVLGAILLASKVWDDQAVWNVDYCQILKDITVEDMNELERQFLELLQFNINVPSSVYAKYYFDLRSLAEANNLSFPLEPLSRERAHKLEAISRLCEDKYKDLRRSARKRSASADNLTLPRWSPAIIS
T8 sequence (P06493 whole entry): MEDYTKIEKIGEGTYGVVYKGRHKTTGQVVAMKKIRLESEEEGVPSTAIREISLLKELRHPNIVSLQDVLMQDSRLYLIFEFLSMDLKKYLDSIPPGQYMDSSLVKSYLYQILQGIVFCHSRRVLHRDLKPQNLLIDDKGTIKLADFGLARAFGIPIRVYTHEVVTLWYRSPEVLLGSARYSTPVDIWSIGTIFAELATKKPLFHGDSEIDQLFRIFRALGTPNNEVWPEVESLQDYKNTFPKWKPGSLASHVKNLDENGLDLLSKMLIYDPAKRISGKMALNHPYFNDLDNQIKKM
T8 sequence (P14635 whole entry partner): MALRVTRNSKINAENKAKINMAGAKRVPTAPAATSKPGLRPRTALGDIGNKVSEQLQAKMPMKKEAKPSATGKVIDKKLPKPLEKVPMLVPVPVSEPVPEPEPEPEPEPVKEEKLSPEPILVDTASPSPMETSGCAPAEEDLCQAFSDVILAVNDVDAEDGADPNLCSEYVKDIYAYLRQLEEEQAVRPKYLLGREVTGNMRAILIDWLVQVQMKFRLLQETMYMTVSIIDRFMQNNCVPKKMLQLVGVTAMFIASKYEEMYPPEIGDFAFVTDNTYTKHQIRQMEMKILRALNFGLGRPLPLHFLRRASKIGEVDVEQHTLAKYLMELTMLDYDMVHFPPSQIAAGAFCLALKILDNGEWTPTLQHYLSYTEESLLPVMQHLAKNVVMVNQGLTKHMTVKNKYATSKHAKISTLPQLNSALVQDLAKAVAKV
T15 sequence (P50750 whole entry): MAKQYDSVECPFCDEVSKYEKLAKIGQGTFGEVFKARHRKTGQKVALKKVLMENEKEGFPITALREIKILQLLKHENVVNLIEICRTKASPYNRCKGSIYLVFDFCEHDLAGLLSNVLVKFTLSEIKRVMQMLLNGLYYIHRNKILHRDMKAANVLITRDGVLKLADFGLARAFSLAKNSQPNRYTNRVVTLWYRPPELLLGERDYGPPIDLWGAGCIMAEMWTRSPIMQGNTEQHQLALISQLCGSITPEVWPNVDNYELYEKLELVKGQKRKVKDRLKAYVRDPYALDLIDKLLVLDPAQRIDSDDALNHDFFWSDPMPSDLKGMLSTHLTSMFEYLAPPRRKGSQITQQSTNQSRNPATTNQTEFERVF
T15 sequence (O60563 whole entry partner): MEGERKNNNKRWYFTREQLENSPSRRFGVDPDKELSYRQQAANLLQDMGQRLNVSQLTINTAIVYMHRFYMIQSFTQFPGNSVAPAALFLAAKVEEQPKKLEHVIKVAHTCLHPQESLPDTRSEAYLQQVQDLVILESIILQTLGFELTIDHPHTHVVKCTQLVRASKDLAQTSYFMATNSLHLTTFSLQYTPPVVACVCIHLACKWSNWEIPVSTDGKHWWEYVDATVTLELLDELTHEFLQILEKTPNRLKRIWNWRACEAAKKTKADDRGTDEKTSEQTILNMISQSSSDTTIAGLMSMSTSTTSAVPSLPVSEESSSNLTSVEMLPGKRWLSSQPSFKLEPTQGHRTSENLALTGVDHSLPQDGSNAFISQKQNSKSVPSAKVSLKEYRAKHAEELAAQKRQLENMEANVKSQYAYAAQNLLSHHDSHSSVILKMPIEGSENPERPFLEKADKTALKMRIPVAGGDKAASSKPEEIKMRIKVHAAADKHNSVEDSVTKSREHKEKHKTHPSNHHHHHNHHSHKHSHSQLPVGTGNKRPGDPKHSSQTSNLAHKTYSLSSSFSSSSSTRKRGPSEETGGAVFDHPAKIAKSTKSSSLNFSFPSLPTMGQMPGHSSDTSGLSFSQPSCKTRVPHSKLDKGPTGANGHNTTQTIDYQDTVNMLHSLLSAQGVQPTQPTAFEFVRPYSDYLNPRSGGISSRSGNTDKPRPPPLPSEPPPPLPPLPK
T4 sequence (P50750 whole entry): as the sequence (P50750 whole entry) above
T4 sequence (O75909 whole entry partner): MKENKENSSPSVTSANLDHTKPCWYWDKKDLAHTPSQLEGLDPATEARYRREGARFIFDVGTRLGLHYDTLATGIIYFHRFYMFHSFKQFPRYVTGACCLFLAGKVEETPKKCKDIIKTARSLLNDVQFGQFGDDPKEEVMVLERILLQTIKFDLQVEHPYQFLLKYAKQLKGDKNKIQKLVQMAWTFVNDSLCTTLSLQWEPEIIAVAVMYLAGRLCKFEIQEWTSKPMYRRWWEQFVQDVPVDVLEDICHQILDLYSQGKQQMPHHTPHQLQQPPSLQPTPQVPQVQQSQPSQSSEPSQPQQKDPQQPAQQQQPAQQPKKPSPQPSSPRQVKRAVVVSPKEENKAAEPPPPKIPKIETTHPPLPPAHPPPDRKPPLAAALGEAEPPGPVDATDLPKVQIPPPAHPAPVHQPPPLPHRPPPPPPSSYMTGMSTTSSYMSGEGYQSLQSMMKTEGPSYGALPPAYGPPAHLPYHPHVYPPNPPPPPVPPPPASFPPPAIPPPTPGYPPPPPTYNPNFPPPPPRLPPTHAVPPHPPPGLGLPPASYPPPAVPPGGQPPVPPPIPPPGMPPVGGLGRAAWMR
T21 sequence (Q00535 whole entry): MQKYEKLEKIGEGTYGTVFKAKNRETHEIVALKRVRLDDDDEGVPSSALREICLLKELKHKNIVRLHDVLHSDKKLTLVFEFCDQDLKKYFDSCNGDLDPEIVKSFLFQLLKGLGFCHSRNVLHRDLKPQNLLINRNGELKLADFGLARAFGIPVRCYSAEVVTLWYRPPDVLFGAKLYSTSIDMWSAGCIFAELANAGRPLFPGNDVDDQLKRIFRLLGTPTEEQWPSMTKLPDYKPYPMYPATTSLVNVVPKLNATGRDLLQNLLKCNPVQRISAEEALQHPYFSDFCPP
T21 sequence (Q15078 99-307 partner limits assumed): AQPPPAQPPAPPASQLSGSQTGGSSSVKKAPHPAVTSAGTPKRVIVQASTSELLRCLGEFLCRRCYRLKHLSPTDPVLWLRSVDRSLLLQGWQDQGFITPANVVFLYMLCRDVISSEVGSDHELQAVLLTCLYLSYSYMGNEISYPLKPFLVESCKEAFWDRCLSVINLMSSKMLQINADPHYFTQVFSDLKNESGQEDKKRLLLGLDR
T22 sequence (Q00535 whole entry): as the sequence (Q00535 whole entry) above
T22 sequence (Q15078 whole entry partner): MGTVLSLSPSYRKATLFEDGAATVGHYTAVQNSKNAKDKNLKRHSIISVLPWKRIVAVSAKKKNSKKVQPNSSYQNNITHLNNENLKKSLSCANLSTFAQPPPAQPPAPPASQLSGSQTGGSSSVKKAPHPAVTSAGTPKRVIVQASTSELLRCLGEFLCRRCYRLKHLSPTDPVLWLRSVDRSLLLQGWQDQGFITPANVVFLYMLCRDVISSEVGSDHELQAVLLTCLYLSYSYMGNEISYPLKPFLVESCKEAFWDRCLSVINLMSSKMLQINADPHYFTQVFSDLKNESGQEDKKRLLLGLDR
Chain of CDK11B 357-795_CycK (P21127 357-795): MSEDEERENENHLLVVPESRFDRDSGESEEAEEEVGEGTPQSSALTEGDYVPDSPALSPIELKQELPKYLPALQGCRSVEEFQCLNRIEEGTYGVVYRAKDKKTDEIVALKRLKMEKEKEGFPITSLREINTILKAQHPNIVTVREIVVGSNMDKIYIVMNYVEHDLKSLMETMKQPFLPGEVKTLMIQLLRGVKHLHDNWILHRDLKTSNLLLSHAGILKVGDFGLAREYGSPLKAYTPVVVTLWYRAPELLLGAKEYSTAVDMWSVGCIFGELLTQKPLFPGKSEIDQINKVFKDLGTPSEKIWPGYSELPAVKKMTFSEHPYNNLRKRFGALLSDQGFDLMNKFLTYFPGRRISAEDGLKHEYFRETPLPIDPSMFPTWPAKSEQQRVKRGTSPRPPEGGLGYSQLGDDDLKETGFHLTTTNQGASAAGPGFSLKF

Cn1cc(-c2ccc(-c3cncc(Cl)c3N3CCC4(CCNC4=O)CC3)cc2)cn1 [CCT251545]
IC50 (CDK8_CycC): 0.0841 µM | Hill Slope (CDK8_CycC; slope of the IC50 fit): -0.56 | IC50 (CDK7_CycH_MAT1; [1]): > 10 µM | Hill Slope (CDK7_CycH_MAT1; slope of the IC50 fit): -0.59 | Hill Slope (CDK13_CycK): 0.15 | IC50 (CDK9_CycK; [1]): 3.81 µM | Hill Slope (CDK9_CycK; slope of the IC50 fit): -0.78 | IC50 (CDK8): 0.005 µM | IC50 (CDK1_CycA2; [2]): > 10 µM | Hill Slope (CDK1_CycA2; slope of the IC50 fit): -0.78 | IC50 (CDK1_CycE1; [2]): > 10 µM | Hill Slope (CDK1_CycE1; slope of the IC50 fit): -0.72 | IC50 (CDK3_CycC): > 10 µM | Hill Slope (CDK3_CycC; slope of the IC50 fit): -0.47 | IC50 (CDK1_CycB1; [1]): > 10 µM | Hill Slope (CDK1_CycB1; slope of the IC50 fit): -0.74 | IC50 (CDK11B 357-795_CycK; [1]): > 10 µM | Hill Slope (CDK11B 357-795_CycK; slope of the IC50 fit): -8.69 | IC50 (CDK16_CycY; [1]): > 10 µM | Hill Slope (CDK16_CycY; slope of the IC50 fit): -1.1 | IC50 (CDK2_CycA2; [2]): > 10 µM | Hill Slope (CDK2_CycA2; slope of the IC50 fit): -0.46 | IC50 (CDK4_CycD2; [1]): > 10 µM | Hill Slope (CDK4_CycD2; slope of the IC50 fit): -0.3 | IC50 (CDK2_CycE1; [2]): > 10 µM | Hill Slope (CDK2_CycE1; slope of the IC50 fit): -0.5 | IC50 (CDK15_CycA2; [1]): > 10 µM | Hill Slope (CDK15_CycA2; slope of the IC50 fit): -0.34 | IC50 (CDK4_CycD1; [1]): > 10 µM | Hill Slope (CDK4_CycD1; slope of the IC50 fit): -0.31 | IC50 (CDK20_CycT1; [1]): > 10 µM | Hill Slope (CDK20_CycT1; slope of the IC50 fit): -0.39 | IC50 (CDK14_CycY; [1]): > 10 µM | Hill Slope (CDK14_CycY; slope of the IC50 fit): -0.82 | IC50 (CDK9_CycT1; [1]): 6.07 µM | Hill Slope (CDK9_CycT1; slope of the IC50 fit): -0.94 | IC50 (CDK10_CycQ; [1]): > 10 µM | Hill Slope (CDK10_CycQ; slope of the IC50 fit): -0.51 | Hill Slope (CDK6_CycD3): -0.2 | IC50 (CDK6_CycD2; [1]): > 10 µM | Hill Slope (CDK6_CycD2; slope of the IC50 fit): -0.64 | IC50 (CDK19_CycC): 0.277 µM | Hill Slope (CDK19_CycC; slope of the IC50 fit): -0.53 | IC50 (CDK18_CycY; [1]): > 10 µM | Hill Slope (CDK18_CycY; slope of the IC50 fit): -0.5 | IC50 (CDK6_CycD1; [1]): > 10 µM | Hill Slope (CDK6_CycD1; slope of the IC50 fit): -1.25 | IC50 (CDK20_CycH; [1]): > 10 µM | Hill Slope (CDK20_CycH; slope of the IC50 fit): -0.44 | Hill Slope (CDK3_CycE1): -0.16 | IC50 (CDK5_p25NCK; [1]): > 10 µM | Hill Slope (CDK5_p25NCK; slope of the IC50 fit): -0.59 | IC50 (CDK5_p35NCK; [1]): > 10 µM | Hill Slope (CDK5_p35NCK; slope of the IC50 fit): -1.62 | IC50 (CDK4_CycD3; [1]): > 10 µM | Hill Slope (CDK4_CycD3; slope of the IC50 fit): -0.27 | IC50 (CDK2_CycD1; [2]): > 10 µM | Hill Slope (CDK2_CycD1; slope of the IC50 fit): -0.29 | Hill Slope (CDK12_CycK): -0.07 | IC50 (CDK17_p35NCK; [1]): > 10 µM | Hill Slope (CDK17_p35NCK; slope of the IC50 fit): -0.17
